How the values were obtained:
Type in all cases: cell-based
[1] = biological target: T1, organic cation transporter 1 (OCT1) (Homo sapiens, UniProt O15245); assay: inhibition of TEA uptake into OCT1-expressing cells at […]; conditions: read-out: % inhibition at 50 μmol/L
T1 sequence (O15245 1-554): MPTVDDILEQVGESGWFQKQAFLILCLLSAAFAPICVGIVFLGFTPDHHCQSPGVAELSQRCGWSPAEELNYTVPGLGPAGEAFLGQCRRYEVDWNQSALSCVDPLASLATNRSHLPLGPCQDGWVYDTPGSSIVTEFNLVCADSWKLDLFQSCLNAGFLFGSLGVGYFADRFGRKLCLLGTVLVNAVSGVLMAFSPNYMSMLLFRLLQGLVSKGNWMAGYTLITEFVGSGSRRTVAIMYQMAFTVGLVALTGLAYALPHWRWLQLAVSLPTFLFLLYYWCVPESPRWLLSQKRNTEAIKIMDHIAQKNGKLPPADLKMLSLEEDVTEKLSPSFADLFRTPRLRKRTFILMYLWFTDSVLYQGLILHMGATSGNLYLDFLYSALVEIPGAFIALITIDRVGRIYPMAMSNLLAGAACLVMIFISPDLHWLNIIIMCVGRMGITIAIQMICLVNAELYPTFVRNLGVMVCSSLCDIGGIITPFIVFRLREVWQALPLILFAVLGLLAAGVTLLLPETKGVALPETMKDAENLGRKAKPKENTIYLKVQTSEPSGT

[2] = biological target: T1, organic cation transporter 1 (OCT1)
[3] = biological target: T1, organic cation transporter 1 (OCT1); assay: inhibition of […]TEA uptake into HEK-OCT1 cells at […]

Compound: Cc1ccc(NC(=O)c2ccc(CN3CCNCC3)cc2)cc1Nc1nccc(-c2cccnc2)n1 [N-desmethyl imatinib]
- inhibition at 50 µM [1]: 90.7 ± 1%

Compound: COc1cc2nc(N3CCN(C(=O)c4ccco4)CC3)nc(N)c2cc1OC [prazosin]
- inhibition of [14C]TEA uptake into HEK-OCT1 cells [2]: OCT1-dependent TEA uptake was significantly reduced in the presence of the inhibitors prazosin and decynium22 (Fig. 4A)

Compound: CCN1/C(=C/c2ccc3ccccc3[n+]2CC)C=Cc2ccccc21 [decynium22]
- inhibition of [14C]TEA uptake into HEK-OCT1 cells at 5 μmol/L [3]: OCT1-dependent TEA uptake was significantly reduced in the presence of the inhibitors prazosin and decynium22 (Fig. 4A)
